US20160058829A1, “ANTI-FIBROTIC PEPTIDES AND THEIR USE IN METHODS FOR TREATING DISEASES AND DISORDERS CHARACTERIZED BY FIBROSIS” (Thrasos Innovation, Inc., priority 2011, published 2016)
Positions of bridges follow the written chain, without caps; N, C: chain ends.

System: BALB/c mice with bleomycin-induced lung fibrosis
Test: Bleomycin (plus cyclophosphamide)-induced pulmonary fibrosis in BALB/c mice
Protocol: The endpoints in this model are survival and histomorphometric evaluation of the extent of fibrosis in lung tissue.
The test compound, in lyophilized form, is dissolved in 50 mM acetate buffer, pH 4.5 at an initial concentration of 20 mg/mL. The stock solution is then divided into several one mL aliquots, snap frozen and stored at −70° C. until used. On the Day of use, each aliquot is thawed and further diluted to a required working concentration in PBS, pH 7.5. The working concentration is determined from the intended dose (mg/kg body weight) and the oral administration volume.
In addition, the mice are administered a single intraperitoneal injection of cyclophosphamide (150 mg/kg of body weight). The animals challenged with Bleomycin plus Cyclophosphamide are separated into two groups, each group having a minimum of 6 animals. The vehicle treated group (Group 1) receives daily oral doses of PBS, pH 7.5. […] These treatments are continued for up to 16 days after Bleomycin administration. A third control group of mice receive intra-tracheal PBS rather than Bleomycine and Cyclophosphamide.
After completion of the in-life study, the animals are euthanized (methoxyflurane anesthesia), and the lungs are perfused with ice cold Hank's balanced salt solution to remove blood-born cells, and then inflated under a constant pressure of 30 cm H2O with 10% normal buffered formalin (NBF). Lungs are ligated at the trachea, removed en bloc, and immersed in NBF for 24 hr. After which, tissue samples are changed to 70% alcohol before paraffin embedding, followed by sectioning and staining with hematoxylin, eosin and Masson's Trichrome. Sections are analyzed microscopically to evaluate pulmonary fibrosis by determining the degree of collagen accumulation (Masson's Trichrome).
Pulmonary fibrosis was evaluated histomorphometricly by determining the percentage of field with collagen accumulation lung sections stained with Masson's Trichrome.

(H)-CYFDDSSNVLCKKYRS-(OH) (H-CYFDDSSNVLCKKYRS-OH; disulfide 1-11; SMILES CC(C)C[C@@H]1NC(=O)[C@H](C(C)C)NC(=O)[C@H](CC(N)=O)NC(=O)[C@H](CO)NC(=O)[C@H](CO)NC(=O)[C@H](CC(=O)O)NC(=O)[C@H](CC(=O)O)NC(=O)[C@H](Cc2ccccc2)NC(=O)[C@H](Cc2ccc(O)cc2)NC(=O)[C@@H](N)CSSC[C@@H](C(=O)N[C@@H](CCCCN)C(=O)N[C@@H](CCCCN)C(=O)N[C@@H](Cc2ccc(O)cc2)C(=O)N[C@@H](CCCNC(=N)N)C(=O)N[C@@H](CO)C(=O)O)NC1=O) [SEQ ID NO: 1]
pulmonary fibrosis (histomorphometric analysis of lung tissue) (daily oral dose of 5 mg/kg): significantly less pulmonary fibrosis
survival rate at 16 days (daily oral dose of 5 mg/kg, vehicle 100% mortality by 8 days): 80%
lung fibrosis score (percentage of field with collagen accumulation, Masson's Trichrome) (day 16, oral, vehicle 31% at ten days): 16%
survival by day 16 (oral): survival of all mice
